Measured values reported in ChEMBL document CHEMBL3124780, “The synthesis of 4,7-disubstituted-2H-benzo[b][1,4]-oxazin-3(4H)-ones using Smiles rearrangement and their in vitro evaluation as platelet aggregation inhibitors” (Bioorg Med Chem Lett, 2014).

Experiment: Antiplatelet activity in New Zealand rabbit platelet-rich plasma assessed as inhibition of ADP-induced aggregation treated for 5 mins prior to ADP-challenge measured after 1 to 6 mins by spectrophotometric analysis
Type: functional, cell-free
Details: Oryctolagus cuniculus

IC50 [µM]	SMILES
15.5	CCCCN1C(=O)COc2cc(CN3CCN(c4ccccc4)CC3)ccc21
17.1	CCCCN1C(=O)COc2cc(CN3CCN(c4ccccc4F)CC3)ccc21
15.3	O=C1COc2cc(CN3CCN(c4ccccc4F)CC3)ccc2N1Cc1ccccc1
9.2	CCCN1C(=O)COc2cc(CN3CCN(Cc4ccccc4)CC3)ccc21
10.5	CCN1C(=O)COc2cc(CN3CCOCC3)ccc21
11	CC(C)N1C(=O)COc2cc(CN3CCOCC3)ccc21
9.63	CCCN1C(=O)COc2cc(CN3CCOCC3)ccc21
14.4	CCCCN1C(=O)COc2cc(CN3CCOCC3)ccc21
12.2	O=C1COc2cc(CN3CCOCC3)ccc2N1Cc1ccccc1
10.1	CCN1C(=O)COc2cc(CN3CCN(c4ccccc4)CC3)ccc21
10.8	CC(C)N1C(=O)COc2cc(CN3CCN(c4ccccc4)CC3)ccc21
12.8	CCCN1C(=O)COc2cc(CN3CCN(c4ccccc4)CC3)ccc21
13.9	O=C1COc2cc(CN3CCN(c4ccccc4)CC3)ccc2N1Cc1ccccc1
11.1	CCN1C(=O)COc2cc(CN3CCN(c4ccc(F)cc4)CC3)ccc21
13.3	CC(C)N1C(=O)COc2cc(CN3CCN(c4ccc(F)cc4)CC3)ccc21
11.4	CCCN1C(=O)COc2cc(CN3CCN(c4ccc(F)cc4)CC3)ccc21
15.2	CCCCN1C(=O)COc2cc(CN3CCN(c4ccc(F)cc4)CC3)ccc21
19.4	O=C1COc2cc(CN3CCN(c4ccc(F)cc4)CC3)ccc2N1Cc1ccccc1
12.7	CCN1C(=O)COc2cc(CN3CCN(c4ccccc4F)CC3)ccc21
13.6	CC(C)N1C(=O)COc2cc(CN3CCN(c4ccccc4F)CC3)ccc21
13.8	CCCN1C(=O)COc2cc(CN3CCN(c4ccccc4F)CC3)ccc21
7.07	CC(=O)Oc1ccccc1C(=O)O [ASPIRIN]
3.72	Clc1ccccc1CN1CCc2sccc2C1 [TICLOPIDINE]
